# Test results published in patent US6358885B1, “Substituted phenylheterocyclic herbicides” (Mississippi State University, priority 1992, dated 2002).
# Columns and labels:
# corn [1] = assay: Test C preemergence/postemergence greenhouse plant response rating 0 to 100; type: in vivo, Zea mays; details: for Plant response rating, Corn: 125 g/ha, 0 to 100 scale
# Method in brief: (§1)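 Compounds in non-phytotoxic solvent went onto sandy loam before emergence (seeded one day earlier) or onto plants at the one-to-four leaf stage. Duck salad was treated via flood water (~2.5 cm, maintained) over silt loam.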
# velvetleaf = assay: as above; type: in vivo, Abutilon theophrasti; details: for Plant response rating, Velvetleaf: 125 g/ha, 0 to 100 scale
# Method in brief: as §1
# morningglory = assay: as above; type: in vivo, Ipomoea hederacea; details: for Plant response rating, Morningglory: 125 g/ha, 0 to 100 scale
# Method in brief: as §1
# downy brome = assay: as above; type: in vivo, Bromus tectorum; details: for Plant response rating Downy Brome: 125 g/ha, 0 to 100 scale
# Method in brief: as §1
# bedstraw [2] = assay: Test B preemergence/postemergence greenhouse plant response rating 0 to 10; type: in vivo, Galium aparine; details: 0 to 10 scale
# Method in brief: (§2)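 Postemergence treatment of plants two to eighteen cm tall ran alongside preemergence treatment of planted seed, each using compound in a non-phytotoxic solvent.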
# chickweed = assay: as above; type: in vivo, Stellaria media; details: 0 to 10 scale
# Method in brief: as §2
# corn [3] = assay: as above; type: in vivo, Zea mays; details: 0 to 10 scale
# Method in brief: as §2
# sugar beet = assay: as above; type: in vivo, Beta vulgaris; details: 0 to 10 scale
# Method in brief: as §2
# bedstraw [4] = assay: Test C preemergence/postemergence greenhouse plant response rating 0 to 100; type: in vivo, Galium aparine; details: for Plant response rating, Bedstraw: 125 g/ha, 0 to 100 scale
# Method in brief: as §1
# cotton = assay: as above; type: in vivo, Gossypium hirsutum; details: for Plant response rating, Cotton: 125 g/ha, 0 to 100 scale
# Method in brief: as §1
# duck salad = assay: Test C flood test plant response rating 0 to 100; type: in vivo, Heteranthera limosa
# Method in brief: as §1
# wild oat = assay: Test C preemergence/postemergence greenhouse plant response rating 0 to 100; type: in vivo, Avena fatua; details: for Plant response rating, Wild oat: 125 g/ha, 0 to 100 scale
# Method in brief: as §1
# barnyardgrass = assay: Test C flood test plant response rating 0 to 100; type: in vivo, Echinochloa crus-galli
# Method in brief: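 Compounds in non-phytotoxic solvent applied preemergence to sandy loam one day after planting, postemergence at the 1–4 leaf stage, or to ~2.5 cm floodwater over silt loam.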
# sorghum = assay: Test C preemergence/postemergence greenhouse plant response rating 0 to 100; type: in vivo, Sorghum bicolor; details: for Plant response rating, Sorghum: 125 g/ha, 0 to 100 scale
# Method in brief: as §1
# wheat = assay: as above; type: in vivo, Triticum aestivum; details: for Plant response rating, Wheat: 125 g/ha, 0 to 100 scale
# Method in brief: as §1
# giant foxtail = assay: as above; type: in vivo, Setaria faberii; details: for Plant response rating, Giant foxtail: 125 g/ha, 0 to 100 scale
# Method in brief: as §1
# wild buckwheat = assay: Test B preemergence/postemergence greenhouse plant response rating 0 to 10; type: in vivo, Polygonum convolvulus; details: 0 to 10 scale
# Method in brief: as §2
# [5] = POSTEMERGENCE section, flood test, Rate 2 g/ha
# [6] = Rate 8 g/ha, under POSTEMERGENCE head (flood test species)
# [7] = Rate 31 g/ha, under POSTEMERGENCE head (flood test species)
# [8] = flood test species listed under POSTEMERGENCE, 125 g/ha, 0 to 100 scale
smiles,measurement,setting,value
Fc1cc(Cl)ccc1-c1nn2c(c1Br)CCCC2 [Compound 52],"Plant response rating, Corn",corn [1]; POSTEMERGENCE,50
same,"Plant response rating (0 to 100), Corn","corn [1]; POSTEMERGENCE, Rate 2 g/ha",20
same,"Plant response rating, Corn",corn [1]; PREEMERGENCE,0
same,"Plant response rating (0 to 100), Corn","corn [1]; PREEMERGENCE, Rate 2 g/ha",0
same,"Plant response rating (0 to 100), Corn","corn [1]; Rate 8 g/ha, POSTEMERGENCE",30
same,"Plant response rating (0 to 100), Corn","corn [1]; Rate 8 g/ha, PREEMERGENCE",0
same,"Plant response rating (0 to 100), Corn","corn [1]; Rate 31 g/ha, POSTEMERGENCE",40
same,"Plant response rating (0 to 100), Corn","corn [1]; Rate 31 g/ha, PREEMERGENCE",0
same,"Plant response rating, Velvetleaf",velvetleaf; POSTEMERGENCE,100
same,"Plant response rating (0 to 100), Velvetleaf","velvetleaf; POSTEMERGENCE, Rate 2 g/ha",50
same,"Plant response rating, Velvetleaf",velvetleaf; PREEMERGENCE,100
same,"Plant response rating (0 to 100), Velvetleaf","velvetleaf; PREEMERGENCE, Rate 2 g/ha",0
same,"Plant response rating (0 to 100), Velvetleaf","velvetleaf; Rate 8 g/ha, POSTEMERGENCE",90
same,"Plant response rating (0 to 100), Velvetleaf","velvetleaf; Rate 8 g/ha, PREEMERGENCE",30
same,"Plant response rating (0 to 100), Velvetleaf","velvetleaf; Rate 31 g/ha, POSTEMERGENCE",100
same,"Plant response rating (0 to 100), Velvetleaf","velvetleaf; Rate 31 g/ha, PREEMERGENCE",100
same,"Plant response rating, Morningglory",morningglory; POSTEMERGENCE,100
same,"Plant response rating (0 to 100), Morningglory","morningglory; POSTEMERGENCE, Rate 2 g/ha",20
same,"Plant response rating, Morningglory",morningglory; PREEMERGENCE,0
same,"Plant response rating (0 to 100), Morningglory","morningglory; PREEMERGENCE, Rate 2 g/ha",0
same,"Plant response rating (0 to 100), Morningglory","morningglory; Rate 8 g/ha, POSTEMERGENCE",30
same,"Plant response rating (0 to 100), Morningglory","morningglory; Rate 8 g/ha, PREEMERGENCE",0
same,"Plant response rating (0 to 100), Morningglory","morningglory; Rate 31 g/ha, POSTEMERGENCE",50
same,"Plant response rating (0 to 100), Morningglory","morningglory; Rate 31 g/ha, PREEMERGENCE",0
same,Plant response rating Downy Brome,downy brome; POSTEMERGENCE,90
same,"Plant response rating (0 to 100), Downy Brome","downy brome; POSTEMERGENCE, Rate 2 g/ha",10
same,Plant response rating Downy Brome,downy brome; PREEMERGENCE,50
same,"Plant response rating (0 to 100), Downy Brome","downy brome; PREEMERGENCE, Rate 2 g/ha",0
same,"Plant response rating (0 to 100), Downy Brome","downy brome; Rate 8 g/ha, POSTEMERGENCE",20
same,"Plant response rating (0 to 100), Downy Brome","downy brome; Rate 8 g/ha, PREEMERGENCE",0
same,"Plant response rating (0 to 100), Downy Brome","downy brome; Rate 31 g/ha, POSTEMERGENCE",50
same,"Plant response rating (0 to 100), Downy Brome","downy brome; Rate 31 g/ha, PREEMERGENCE",0
same,"Plant response rating, Bedstraw","bedstraw [2]; POSTEMERGENCE, Rate 50 g/ha",10
same,"Plant response rating, Bedstraw","bedstraw [2]; POSTEMERGENCE, Rate 200 g/ha",10
same,"Plant response rating, Bedstraw","bedstraw [2]; PREEMERGENCE, Rate 50 g/ha",5
same,"Plant response rating, Bedstraw","bedstraw [2]; Rate 200 g/ha, PREEMERGENCE",7
same,"Plant response rating, Chickweed","chickweed; POSTEMERGENCE, Rate 50 g/ha",5
same,"Plant response rating, Chickweed","chickweed; POSTEMERGENCE, Rate 200 g/ha",7
same,"Plant response rating, Chickweed","chickweed; PREEMERGENCE, Rate 50 g/ha",9
same,"Plant response rating, Chickweed","chickweed; Rate 200 g/ha, PREEMERGENCE",9
same,"Plant response rating, Corn","corn [3]; POSTEMERGENCE, Rate 50 g/ha",6
same,"Plant response rating, Corn","corn [3]; POSTEMERGENCE, Rate 200 g/ha",8
same,"Plant response rating, Corn","corn [3]; PREEMERGENCE, Rate 50 g/ha",1
same,"Plant response rating, Corn","corn [3]; Rate 200 g/ha, PREEMERGENCE",4
same,"Plant response rating, Sugar beet","sugar beet; POSTEMERGENCE, Rate 50 g/ha",10
same,"Plant response rating, Sugar beet","sugar beet; PREEMERGENCE, Rate 50 g/ha",9
same,"Plant response rating, Sugar beet","sugar beet; Rate 200 g/ha, PREEMERGENCE",10
same,"Plant response rating, Bedstraw",bedstraw [4]; POSTEMERGENCE,100
same,"Plant response rating (0 to 100), Bedstraw","bedstraw [4]; POSTEMERGENCE, Rate 2 g/ha",50
same,"Plant response rating, Bedstraw",bedstraw [4]; PREEMERGENCE,80
same,"Plant response rating (0 to 100), Bedstraw","bedstraw [4]; PREEMERGENCE, Rate 2 g/ha",0
same,"Plant response rating (0 to 100), Bedstraw","bedstraw [4]; Rate 8 g/ha, POSTEMERGENCE",70
same,"Plant response rating (0 to 100), Bedstraw","bedstraw [4]; Rate 8 g/ha, PREEMERGENCE",0
same,"Plant response rating (0 to 100), Bedstraw","bedstraw [4]; Rate 31 g/ha, POSTEMERGENCE",70
same,"Plant response rating (0 to 100), Bedstraw","bedstraw [4]; Rate 31 g/ha, PREEMERGENCE",10
same,"Plant response rating, Cotton",cotton; POSTEMERGENCE,100
same,"Plant response rating (0 to 100), Cotton","cotton; POSTEMERGENCE, Rate 2 g/ha",70
same,"Plant response rating, Cotton",cotton; PREEMERGENCE,0
same,"Plant response rating (0 to 100), Cotton","cotton; PREEMERGENCE, Rate 2 g/ha",0
same,"Plant response rating (0 to 100), Cotton","cotton; Rate 8 g/ha, POSTEMERGENCE",95
same,"Plant response rating (0 to 100), Cotton","cotton; Rate 8 g/ha, PREEMERGENCE",0
same,"Plant response rating (0 to 100), Cotton","cotton; Rate 31 g/ha, POSTEMERGENCE",95
same,"Plant response rating (0 to 100), Cotton","cotton; Rate 31 g/ha, PREEMERGENCE",0
same,"Plant response rating (0 to 100), Duck salad",duck salad; [5],0
same,"Plant response rating (0 to 100), Duck salad",duck salad; [6],0
same,"Plant response rating (0 to 100), Duck salad",duck salad; [7],20
same,Plant response rating Duck salad,duck salad; [8],85
same,"Plant response rating, Wild oat",wild oat; POSTEMERGENCE,60
same,"Plant response rating (0 to 100), Wild oat","wild oat; POSTEMERGENCE, Rate 2 g/ha",10
same,"Plant response rating, Wild oat",wild oat; PREEMERGENCE,20
same,"Plant response rating (0 to 100), Wild oat","wild oat; PREEMERGENCE, Rate 2 g/ha",0
same,"Plant response rating (0 to 100), Wild oat","wild oat; Rate 8 g/ha, POSTEMERGENCE",20
same,"Plant response rating (0 to 100), Wild oat","wild oat; Rate 8 g/ha, PREEMERGENCE",0
same,"Plant response rating (0 to 100), Wild oat","wild oat; Rate 31 g/ha, POSTEMERGENCE",30
same,"Plant response rating (0 to 100), Wild oat","wild oat; Rate 31 g/ha, PREEMERGENCE",0
same,"Plant response rating (0 to 100), Barnyardgrass 2",barnyardgrass; [5],25
same,"Plant response rating (0 to 100), Barnyardgrass 2",barnyardgrass; [6],95
same,"Plant response rating (0 to 100), Barnyardgrass 2",barnyardgrass; [7],100
same,Plant response rating Barnyardgrass 2,barnyardgrass; [8],100
same,"Plant response rating, Sorghum",sorghum; POSTEMERGENCE,60
same,"Plant response rating (0 to 100), Sorghum","sorghum; POSTEMERGENCE, Rate 2 g/ha",30
same,"Plant response rating, Sorghum",sorghum; PREEMERGENCE,10
same,"Plant response rating (0 to 100), Sorghum","sorghum; PREEMERGENCE, Rate 2 g/ha",0
same,"Plant response rating (0 to 100), Sorghum","sorghum; Rate 8 g/ha, POSTEMERGENCE",40
same,"Plant response rating (0 to 100), Sorghum","sorghum; Rate 8 g/ha, PREEMERGENCE",0
same,"Plant response rating (0 to 100), Sorghum","sorghum; Rate 31 g/ha, POSTEMERGENCE",50
same,"Plant response rating (0 to 100), Sorghum","sorghum; Rate 31 g/ha, PREEMERGENCE",0
same,"Plant response rating, Wheat",wheat; POSTEMERGENCE,50
same,"Plant response rating (0 to 100), Wheat","wheat; POSTEMERGENCE, Rate 2 g/ha",10
same,"Plant response rating, Wheat",wheat; PREEMERGENCE,60
same,"Plant response rating (0 to 100), Wheat","wheat; PREEMERGENCE, Rate 2 g/ha",0
same,"Plant response rating (0 to 100), Wheat","wheat; Rate 8 g/ha, POSTEMERGENCE",20
same,"Plant response rating (0 to 100), Wheat","wheat; Rate 8 g/ha, PREEMERGENCE",0
same,"Plant response rating (0 to 100), Wheat","wheat; Rate 31 g/ha, POSTEMERGENCE",30
same,"Plant response rating (0 to 100), Wheat","wheat; Rate 31 g/ha, PREEMERGENCE",0
same,"Plant response rating, Giant foxtail",giant foxtail; POSTEMERGENCE,85
same,"Plant response rating (0 to 100), Giant foxtail","giant foxtail; POSTEMERGENCE, Rate 2 g/ha",20
same,"Plant response rating, Giant foxtail",giant foxtail; PREEMERGENCE,90
same,"Plant response rating (0 to 100), Giant foxtail","giant foxtail; PREEMERGENCE, Rate 2 g/ha",0
same,"Plant response rating (0 to 100), Giant foxtail","giant foxtail; Rate 8 g/ha, POSTEMERGENCE",40
same,"Plant response rating (0 to 100), Giant foxtail","giant foxtail; Rate 8 g/ha, PREEMERGENCE",10
same,"Plant response rating (0 to 100), Giant foxtail","giant foxtail; Rate 31 g/ha, POSTEMERGENCE",50
same,"Plant response rating (0 to 100), Giant foxtail","giant foxtail; Rate 31 g/ha, PREEMERGENCE",30
same,"Plant response rating, Wild buckwheat","wild buckwheat; POSTEMERGENCE, Rate 50 g/ha",10
same,"Plant response rating, Wild buckwheat","wild buckwheat; PREEMERGENCE, Rate 50 g/ha",7
same,"Plant response rating, Wild buckwheat","wild buckwheat; Rate 200 g/ha, POSTEMERGENCE",10
same,"Plant response rating, Wild buckwheat","wild buckwheat; Rate 200 g/ha, PREEMERGENCE",10
